ChEMBL document CHEMBL4196117, “PK/PD Disconnect Observed with a Reversible Endothelial Lipase Inhibitor” (ACS Med Chem Lett, 2018)
pIC50: −log10 of the molar value.

How the values were obtained:
[1] = Protein binding in hamster plasma at 50 mg/kg, po qd for 7 days measured 6 hrs post dose on day 5; type: ADME, organism-based; settings: cricetinae, read-out: PPB (converted)
Mus musculus [2] = test: Ratio of total AUC in CD1 mouse at 50 mg/kg, po administered as bolus dose to total AUC in CD1 mouse at 1 mg/kg, po administered as bolus dose; type: ADME, organism-based; settings: in vivo
[3] = Total AUC in CD1 mouse at 1 mg/kg, po administered as bolus dose; type: ADME, organism-based; design: dose 1 mg/kg, route oral, time AUCmax; settings: in vivo
Endothelial lipase [4] = target: T1, Endothelial lipase (Homo sapiens, UniProt Q9Y5X9); test: Inhibition of endothelial lipase in human HT1080 cells using PED-A1 containing DMPG vesicles as substrate pretreated for 20 mins followed by substrate addition and measured every 20 secs for 10 mins by fluorescence assay; type: cell-based
T1 sequence (Q9Y5X9 whole entry): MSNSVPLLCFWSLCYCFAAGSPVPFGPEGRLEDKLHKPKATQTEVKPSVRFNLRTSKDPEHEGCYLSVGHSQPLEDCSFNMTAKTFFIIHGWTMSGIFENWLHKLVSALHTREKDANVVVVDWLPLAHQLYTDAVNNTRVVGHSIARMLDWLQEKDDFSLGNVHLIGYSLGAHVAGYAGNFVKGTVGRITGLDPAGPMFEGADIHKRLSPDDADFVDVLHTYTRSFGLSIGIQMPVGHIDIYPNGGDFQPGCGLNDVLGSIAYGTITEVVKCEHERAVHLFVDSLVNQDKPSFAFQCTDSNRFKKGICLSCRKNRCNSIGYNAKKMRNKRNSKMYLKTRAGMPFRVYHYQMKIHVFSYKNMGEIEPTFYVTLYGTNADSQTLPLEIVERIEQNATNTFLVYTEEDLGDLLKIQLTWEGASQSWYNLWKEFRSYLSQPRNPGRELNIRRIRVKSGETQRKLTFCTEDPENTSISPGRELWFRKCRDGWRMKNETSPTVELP

[5] = Cmax in CD1 mouse at 1 mg/kg, iv administered as bolus dose; type: ADME, organism-based; design: dose 1 mg/kg, route intravenous; settings: in vivo
[6] = Half life in CD1 mouse at 1 mg/kg, po administered as bolus dose; type: ADME, organism-based; settings: in vivo
[7] = Oral bioavailability in CD1 mouse at 1 mg/kg administered as bolus dose; type: ADME, organism-based; settings: in vivo
[8] = Drug level in CD1 mouse at 1 mg/kg, po administered as bolus dose measured after 24 hrs; type: ADME, organism-based; settings: in vivo, read-out: Drug uptake
[9] = Tmax in CD1 mouse at 1 mg/kg, iv administered as bolus dose; type: ADME, organism-based; settings: in vivo
Mus musculus [10] = test: fCmax in C57BL/6J mouse at 50 mg/kg, po administered once daily for 5 days measured 6 hrs post last dose; type: ADME, organism-based; settings: in vivo
[11] = Ratio of fCmin in C57BL/6J mouse to IC50 for recombinant mouse endothelial lipase expressed in HEK293F cells using HDL as substrate; type: ADME, cell-based
[12] = Half life in CD1 mouse at 1 mg/kg, iv administered as bolus dose; type: ADME, organism-based; settings: in vivo
Endothelial lipase [13] = target: T1, Endothelial lipase; test: Inhibition of endothelial lipase in human HT1080 cells using HDL as substrate pretreated for 10 mins followed by substrate addition and measured after 30 mins by LC/MS/MS analysis; type: cell-based
[14] = Ratio of fCmax in hamster to IC50 for recombinant mouse endothelial lipase expressed in HEK293F cells using HDL as substrate; type: ADME, cell-based
Mus musculus [15] = test: Ratio of total AUC in CD1 mouse at 10 mg/kg, po administered as bolus dose to total AUC in CD1 mouse at 1 mg/kg, po administered as bolus dose; type: ADME, organism-based; settings: in vivo
[16] = Cmax in CD1 mouse at 1 mg/kg, po administered as bolus dose; type: ADME, organism-based; design: dose 1 mg/kg, route oral; settings: in vivo
[17] = Ratio of fCmax in C57BL/6J mouse to IC50 for recombinant mouse endothelial lipase expressed in HEK293F cells using HDL as substrate; type: ADME, cell-based
[18] = Protein binding in CD1 mouse plasma assessed as unbound fraction at 1 mg/kg, po administered as bolus dose; type: ADME, organism-based
Hamster = test: fCmax in hamster at 50 mg/kg, po qd for 7 days measured 6 hrs post dose on day 5; type: ADME, organism-based; settings: cricetinae, in vivo
[19] = Tmax in CD1 mouse at 1 mg/kg, po administered as bolus dose; type: ADME, organism-based; settings: in vivo
[20] = Cmin in C57BL/6J mouse at 50 mg/kg, po administered once daily for 5 days measured 24 hrs post last dose; type: ADME, organism-based; settings: in vivo, read-out: Cmin
Mus musculus [21] = test: Free drug level in CD1 mouse at 1 mg/kg, po administered as bolus dose measured after 24 hrs; type: ADME, organism-based; settings: in vivo
[22] = Protein binding in CD1 mouse plasma at 1 mg/kg, po administered as bolus dose; type: ADME, organism-based; settings: read-out: PPB (converted)
Mus musculus [23] = test: fCmin in C57BL/6J mouse at 50 mg/kg, po administered once daily for 5 days measured 24 hrs post last dose; type: ADME, organism-based; settings: in vivo
[24] = Cmax in C57BL/6J mouse at 50 mg/kg, po administered once daily for 5 days measured 6 hrs post last dose; type: ADME, organism-based; design: dose 50 mg/kg, route oral; settings: in vivo
[25] = Total AUC in CD1 mouse at 1 mg/kg, iv administered as bolus dose; type: ADME, organism-based; design: dose 1 mg/kg, time AUCmax, route intravenous; settings: in vivo

fraction unbound at 6 h [1]: 0.016
Ratio AUC (Mus musculus [2]): 18
AUC [3]: 292 µM·h
pIC50 (Endothelial lipase [4]): 6.83
Cmax [5]: 39 µM
half-life [6]: 13 h
bioavailability [7]: 96%
concentration at 24 h [8]: 4.31 µM
Tmax [9]: 3 min
fCmax (Mus musculus [10]): 5.5 µM
Ratio [11]: 13
half-life [12]: 13 h
pIC50 (Endothelial lipase [13]): 6.66
Ratio [14]: 51
Ratio AUC (Mus musculus [15]): 7.5
Cmax [16]: 15 µM
Ratio [17]: 55
fraction unbound [18]: 0.023
fCmax (Hamster): 5.1 µM
Tmax [19]: 0.5 h
concentration at 24 h [20]: 57 µM
Drug uptake(free) (Mus musculus [21]): 99 nM
fraction unbound [22]: 0.023
fCmin (Mus musculus [23]): 1.3 µM
Cmax [24]: 238 µM
AUC [25]: 304 µM·h
Structure (SMILES): CCN1CC(C(=O)NC(C)CCc2ccc(Cl)c(Cl)c2)=C(O)C1=O (stereo in doubt; 7c)
